Experimental data: the supplement of paper PMC10307832

What was measured:
Assay in all cases: relative viability (nuclei count vs DMSO), 5 days (fraction); higher = more cells survive
A-427 = system: A-427
Method in brief: (§1)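 Relative viability is defined as nuclei in treated wells over nuclei in vehicle wells. Duplicate plates were run and medians reported. Lung cancer cell lines in 1536-well plates were dosed by pin tool one day after seeding, with one drug or with a fixed anchor-drug dose plus five library-drug doses (not always all listed) in √10 steps, and nuclei were counted after 5 days.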

CAL-12T = system: CAL-12T
Method in brief: as §1

COR-L 105 = system: COR-L 105
Method in brief: as §1

COR-L23 = system: COR-L23
Method in brief: as §1

EPLC-272H = system: EPLC-272H
Method in brief: as §1

HOP-62 = system: HOP-62
Method in brief: as §1

LXF-289 = system: LXF-289
Method in brief: as §1

NCI-H1395 = system: NCI-H1395
Method in brief: as §1

NCI-H1651 = system: NCI-H1651
Method in brief: as §1

NCI-H1975 = system: NCI-H1975
Method in brief: as §1

NCI-H1993 = system: NCI-H1993
Method in brief: as §1

NCI-H2023 = system: NCI-H2023
Method in brief: as §1

NCI-H2085 = system: NCI-H2085
Method in brief: as §1

NCI-H2087 = system: NCI-H2087
Method in brief: as §1

NCI-H2170 = system: NCI-H2170
Method in brief: as §1

NCI-H3122 = system: NCI-H3122
Method in brief: as §1

NCI-H596 = system: NCI-H596
Method in brief: as §1

NCI-H647 = system: NCI-H647
Method in brief: as §1

NCI-H650 = system: NCI-H650
Method in brief: as §1

PC-14 = system: PC-14
Method in brief: as §1

RERF-LC-KJ = system: RERF-LC-KJ
Method in brief: as §1

SK-MES-1 = system: SK-MES-1
Method in brief: as §1

## O=C(O)CCCCC(CCSCc1ccccc1)SCc1ccccc1 (stereo not given) [CPI-613] + CS(=O)(=O)CCNCc1ccc(-c2ccc3ncnc(Nc4ccc(OCc5cccc(F)c5)c(Cl)c4)c3c2)o1 [Lapatinib] (partner 2 µM)
A-427; first compound 5 µM
  relative viability: 0.974
A-427; first compound 15.81 µM
  relative viability: 0.94
A-427; first compound 50 µM
  relative viability: 1.07
A-427; first compound 158.11 µM
  relative viability: 0.996
A-427; first compound 500 µM
  relative viability: 0.948
CAL-12T; first compound 5 µM
  relative viability: 0.605
CAL-12T; first compound 15.81 µM
  relative viability: 0.532
CAL-12T; first compound 50 µM
  relative viability: 0.603
CAL-12T; first compound 158.11 µM
  relative viability: 0.551
CAL-12T; first compound 500 µM
  relative viability: 0.56
COR-L 105; first compound 5 µM
  relative viability: 0.364
COR-L 105; first compound 15.81 µM
  relative viability: 0.323
COR-L 105; first compound 50 µM
  relative viability: 0.377
COR-L 105; first compound 158.11 µM
  relative viability: 0.291
COR-L 105; first compound 500 µM
  relative viability: 0.263
COR-L23; first compound 5 µM
  relative viability: 0.826
COR-L23; first compound 15.81 µM
  relative viability: 0.969
COR-L23; first compound 50 µM
  relative viability: 0.746
COR-L23; first compound 158.11 µM
  relative viability: 0.459
COR-L23; first compound 500 µM
  relative viability: 0.0098
EPLC-272H; first compound 5 µM
  relative viability: 0.905
EPLC-272H; first compound 15.81 µM
  relative viability: 0.828
EPLC-272H; first compound 50 µM
  relative viability: 0.879
EPLC-272H; first compound 158.11 µM
  relative viability: 1
EPLC-272H; first compound 500 µM
  relative viability: 0.857
HOP-62; first compound 5 µM
  relative viability: 1.06
HOP-62; first compound 15.81 µM
  relative viability: 0.855
HOP-62; first compound 50 µM
  relative viability: 0.935
HOP-62; first compound 158.11 µM
  relative viability: 0.804
HOP-62; first compound 500 µM
  relative viability: 0.107
LXF-289; first compound 5 µM
  relative viability: 0.842
LXF-289; first compound 15.81 µM
  relative viability: 0.881
LXF-289; first compound 50 µM
  relative viability: 0.835
LXF-289; first compound 158.11 µM
  relative viability: 0.585
LXF-289; first compound 500 µM
  relative viability: 0.0115
NCI-H1395; first compound 5 µM
  relative viability: 1.01
NCI-H1395; first compound 15.81 µM
  relative viability: 0.91
NCI-H1395; first compound 50 µM
  relative viability: 1.08
NCI-H1395; first compound 158.11 µM
  relative viability: 0.773
NCI-H1395; first compound 500 µM
  relative viability: 0.894
NCI-H1651; first compound 5 µM
  relative viability: 0.732
NCI-H1651; first compound 15.81 µM
  relative viability: 0.71
NCI-H1651; first compound 50 µM
  relative viability: 0.781
NCI-H1651; first compound 158.11 µM
  relative viability: 0.312
NCI-H1651; first compound 500 µM
  relative viability: 0.0775
NCI-H1975; first compound 5 µM
  relative viability: 0.89
NCI-H1975; first compound 15.81 µM
  relative viability: 0.832
NCI-H1975; first compound 50 µM
  relative viability: 0.821
NCI-H1975; first compound 158.11 µM
  relative viability: 0.824
NCI-H1975; first compound 500 µM
  relative viability: 0.0608
NCI-H1993; first compound 5 µM
  relative viability: 0.777
NCI-H1993; first compound 15.81 µM
  relative viability: 0.706
NCI-H1993; first compound 50 µM
  relative viability: 0.774
NCI-H1993; first compound 158.11 µM
  relative viability: 0.567
NCI-H1993; first compound 500 µM
  relative viability: 0.41
NCI-H2023; first compound 5 µM
  relative viability: 0.694
NCI-H2023; first compound 15.81 µM
  relative viability: 0.63
NCI-H2023; first compound 50 µM
  relative viability: 0.755
NCI-H2023; first compound 158.11 µM
  relative viability: 0.0743
NCI-H2023; first compound 500 µM
  relative viability: 0.0041
NCI-H2085; first compound 5 µM
  relative viability: 0.813
NCI-H2085; first compound 15.81 µM
  relative viability: 0.728
NCI-H2085; first compound 50 µM
  relative viability: 0.709
NCI-H2085; first compound 158.11 µM
  relative viability: 0.674
NCI-H2085; first compound 500 µM
  relative viability: 0.516
NCI-H2087; first compound 5 µM
  relative viability: 1.06
NCI-H2087; first compound 15.81 µM
  relative viability: 0.934
NCI-H2087; first compound 50 µM
  relative viability: 0.72
NCI-H2087; first compound 158.11 µM
  relative viability: 0.525
NCI-H2087; first compound 500 µM
  relative viability: 0.012
NCI-H2170; first compound 5 µM
  relative viability: 0.259
NCI-H2170; first compound 15.81 µM
  relative viability: 0.273
NCI-H2170; first compound 50 µM
  relative viability: 0.249
NCI-H2170; first compound 158.11 µM
  relative viability: 0.261
NCI-H2170; first compound 500 µM
  relative viability: 0.188
NCI-H3122; first compound 5 µM
  relative viability: 1.02
NCI-H3122; first compound 15.81 µM
  relative viability: 0.971
NCI-H3122; first compound 50 µM
  relative viability: 0.994
NCI-H3122; first compound 158.11 µM
  relative viability: 0.856
NCI-H3122; first compound 500 µM
  relative viability: 0.0332
NCI-H596; first compound 5 µM
  relative viability: 1.01
NCI-H596; first compound 15.81 µM
  relative viability: 1.05
NCI-H596; first compound 50 µM
  relative viability: 1.02
NCI-H596; first compound 158.11 µM
  relative viability: 1.05
NCI-H596; first compound 500 µM
  relative viability: 0.0407
NCI-H647; first compound 5 µM
  relative viability: 0.962
NCI-H647; first compound 15.81 µM
  relative viability: 0.698
NCI-H647; first compound 50 µM
  relative viability: 0.757
NCI-H647; first compound 158.11 µM
  relative viability: 0.27
NCI-H647; first compound 500 µM
  relative viability: 0.0102
NCI-H650; first compound 5 µM
  relative viability: 1.05
NCI-H650; first compound 15.81 µM
  relative viability: 0.913
NCI-H650; first compound 50 µM
  relative viability: 1.11
NCI-H650; first compound 158.11 µM
  relative viability: 0.84
NCI-H650; first compound 500 µM
  relative viability: 0.724
PC-14; first compound 5 µM
  relative viability: 0.347
PC-14; first compound 15.81 µM
  relative viability: 0.307
PC-14; first compound 50 µM
  relative viability: 0.303
PC-14; first compound 158.11 µM
  relative viability: 0.251
PC-14; first compound 500 µM
  relative viability: 0.259
RERF-LC-KJ; first compound 5 µM
  relative viability: 0.857
RERF-LC-KJ; first compound 15.81 µM
  relative viability: 0.826
RERF-LC-KJ; first compound 50 µM
  relative viability: 0.782
RERF-LC-KJ; first compound 158.11 µM
  relative viability: 0.854
RERF-LC-KJ; first compound 500 µM
  relative viability: 0.819
SK-MES-1; first compound 5 µM
  relative viability: 0.458
SK-MES-1; first compound 15.81 µM
  relative viability: 0.399
SK-MES-1; first compound 50 µM
  relative viability: 0.428
SK-MES-1; first compound 158.11 µM
  relative viability: 0.408
SK-MES-1; first compound 500 µM
  relative viability: 0.458
